In patent publication US20230057033A1, “FLUOROGENIC BETA-LACTAMASE SUBSTRATE AND ASSOCIATED DETECTION METHOD” (MOLSID, priority 2019, published 2023):

Test system: β-lactamase
Assay: Detection of fluorescence of compound 15 with β-lactamase (microwell plate, plate fluorimeter)
Type: biochemical
Conditions: 75 μ, 37° C., 10 U.mL^−1, fluorescence measured over time, FIG. 1
Method: The fluorescence of compound 15 was evaluated with and without a β-lactamase. The test was performed by incubation/chemical reaction in a microwell plate (75 μ, 37° C., 10 U.mL^−1). The fluorescence was measured over time by a plate fluorimeter.

For `O=C(Cc1cccs1)N[C@@H]1C(=O)N2C(C(=O)O)=C(COC(=O)NCC3CCCCN3C(=O)Oc3ccc(Cl)cc3-c3nc4ccc(Cl)cc4c(=O)[nH]3)CS[C@H]12` (stereo partly shown) [Compound 15], which “fluorescence generated in the presence of β-lactamase (hydrolysis, fragmentation and release of ELF 97)” value is on record?
The value was “intense fluorescence”.
